Some test systems named below: SF-295 CNS; ACHN renal; SR leukemia; RXF 393 renal; EKVX NSCLC; SN12C renal; HL-60(TB) leukemia; HS 578T breast; MDA-MB-231 breast; NCI-H460 lung.
What all share (assay): growth of human tumour cells (NCI), 48 h

TGI and GI50 data for 18 molecules are collected here from PubChem BioAssay (NCI).

Structures are written as SMILES.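 Cultured in 96-well plates, cells were exposed to test compound for 48 hours across five concentrations. Abbreviation: GI50, concentration required for 50% inhibition of growth. TGI marks complete inhibition of growth.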

As for `O=C(OCCN=c1c2ccccc2ccc2ccccc12)c1cc([N+](=O)[O-])cc([N+](=O)[O-])c1`, the TGI with SF-295 CNS, with ACHN renal, in the assay on SR leukemia, with RXF 393 renal, in the assay on EKVX NSCLC and in the assay on SN12C renal was greater than 100 µM each time. Further, the TGI in the assay with HL-60(TB) leukemia, in the assay with HS 578T breast, in the assay on MDA-MB-231 breast and in the assay with NCI-H460 lung was greater than 100 µM each time.

In the case of `CC(C)OC(=O)C(NC(=O)C(CC(=O)OCc1ccccc1)NC(=O)OCc1ccccc1)NC(=O)C1C(C)(C)CCC1(C)C` (stereo not given), the TGI in the assay on SF-295 CNS was found to be 31.1 µM; in the assay with ACHN renal it was 14.7 µM; in the assay on SR leukemia, 7.5 µM; with RXF 393 renal, 12.7 µM; in the assay on EKVX NSCLC it was 12.2 µM; with SN12C renal, 15.1 µM. The TGI with HL-60(TB) leukemia was greater than 40.4 µM; with HS 578T breast it was 23.5 µM; in the assay on MDA-MB-231 breast it was 7.82 µM; with NCI-H460 lung, 31.6 µM.

Take `COc1cc(C=O)cc(C=Nc2ccc(Br)cc2)c1O`: the TGI is 21.1 µM in the assay on SF-295 CNS; 49.4 µM in the assay on ACHN renal; 40.8 µM in the assay on SR leukemia; 15 µM in the assay with RXF 393 renal; greater than 100 µM in the assay on EKVX NSCLC; 32.7 µM in the assay on SN12C renal. Also, the TGI in the assay with HL-60(TB) leukemia was 56.8 µM; in the assay with HS 578T breast, 5.26 µM; in the assay with MDA-MB-231 breast, 37.8 µM; in the assay on NCI-H460 lung, 37.5 µM.

As to `CCOC(=O)N1CCNCCN(C(=O)OCC)CCNCC1`, the TGI in the assay with SF-295 CNS, in the assay on ACHN renal, in the assay on SR leukemia, in the assay on RXF 393 renal, with EKVX NSCLC and in the assay with SN12C renal was greater than 100 µM in each case. In addition, the TGI in the assay on HL-60(TB) leukemia, in the assay on HS 578T breast, with MDA-MB-231 breast and with NCI-H460 lung was greater than 100 µM throughout.

`O=c1[nH]nc(Nc2ccc(Cl)cc2)c2nnn(C3CCCCC3)c12`: the TGI with SF-295 CNS was greater than 100 µM; in the assay with ACHN renal, greater than 100 µM; in the assay with SR leukemia, 43.3 µM; with RXF 393 renal it was 92.8 µM; with EKVX NSCLC, greater than 100 µM; in the assay on SN12C renal it was greater than 100 µM. Moreover, the TGI in the assay with HL-60(TB) leukemia is greater than 100 µM; in the assay with HS 578T breast, greater than 100 µM; in the assay with MDA-MB-231 breast, 45.2 µM; with NCI-H460 lung it was greater than 100 µM.

On to `OCCN1CCN(c2nc(N3CCCC3)c3nc(Cl)c(NCc4ccccc4)nc3n2)CC1`, for which the TGI in the assay on SF-295 CNS was 13.4 µM; with ACHN renal, 20.7 µM; in the assay on SR leukemia, 15.2 µM; in the assay with RXF 393 renal, 3.68 µM; with EKVX NSCLC, 25 µM; with SN12C renal, 24.2 µM. In addition, the TGI amounted to 11.8 µM in the assay on HL-60(TB) leukemia, 31 µM in the assay on HS 578T breast, 25 µM in the assay with MDA-MB-231 breast and 18.1 µM in the assay with NCI-H460 lung.

Consider `CC(=O)Oc1cc2c(cc1OCC(F)(F)F)[C@H]1CC[C@]3(C)[C@@H](OC(C)=O)CC[C@H]3[C@@H]1CC2=O`, for which the TGI in the assay on SF-295 CNS was 88.3 µM; in the assay with ACHN renal, 60 µM; in the assay on SR leukemia, greater than 77.9 µM; with RXF 393 renal it was 50 µM; with EKVX NSCLC, greater than 72.1 µM; in the assay with SN12C renal, 57.6 µM. The TGI in the assay on HL-60(TB) leukemia is 34.7 µM; in the assay with HS 578T breast, 50.4 µM; in the assay with MDA-MB-231 breast, 60.2 µM; in the assay on NCI-H460 lung it was greater than 100 µM.

As for `N#Cc1cc(F)cc(Oc2ccc(S(=O)(=O)C(F)F)c3c2CC(F)(F)[C@H]3O)c1`, the GI50 was 24.9 µM with SF-295 CNS; 30.4 µM with ACHN renal; 36 µM in the assay with SR leukemia; 21.5 µM in the assay with RXF 393 renal; 25.3 µM in the assay with EKVX NSCLC; 28.7 µM in the assay on SN12C renal. In addition, the GI50 is 27.4 µM in the assay with HL-60(TB) leukemia, 28.5 µM in the assay on HS 578T breast, 22.3 µM in the assay on MDA-MB-231 breast and 42.1 µM in the assay with NCI-H460 lung. Moreover, the TGI in the assay with SF-295 CNS is 79.2 µM; with ACHN renal, greater than 100 µM; in the assay with SR leukemia, greater than 100 µM; in the assay on RXF 393 renal it was greater than 100 µM; in the assay with EKVX NSCLC it was greater than 100 µM; with SN12C renal, greater than 100 µM. In addition, the TGI was 87.2 µM with HL-60(TB) leukemia, greater than 100 µM in the assay on HS 578T breast, 73.2 µM in the assay on MDA-MB-231 breast and greater than 100 µM in the assay with NCI-H460 lung.

As to `O=C(Nc1ccc(-n2cc(-c3ccncc3)c(-c3ccc(O)c(Cl)c3)n2)cc1)Nc1cc(C(F)(F)F)cc(C(F)(F)F)c1`, the GI50 is 2.08 µM with SF-295 CNS; 3.24 µM with ACHN renal; 6.06 µM with SR leukemia; 2.54 µM in the assay with RXF 393 renal; 3.57 µM in the assay on EKVX NSCLC; 4.12 µM in the assay on SN12C renal. Moreover, the GI50 in the assay with HL-60(TB) leukemia was 2.98 µM; with HS 578T breast, 1.94 µM; with MDA-MB-231 breast it was 3.61 µM; in the assay on NCI-H460 lung, 3.69 µM. Moreover, the TGI worked out at 6.56 µM in the assay on SF-295 CNS; 11.7 µM with ACHN renal; 31.3 µM in the assay on SR leukemia; 6.9 µM with RXF 393 renal; 15.6 µM in the assay on EKVX NSCLC; 16.3 µM in the assay on SN12C renal. For the same molecule, the TGI in the assay on HL-60(TB) leukemia was found to be 8.09 µM; with HS 578T breast, 7.41 µM; in the assay with MDA-MB-231 breast, 14.6 µM; in the assay on NCI-H460 lung, 14.6 µM.

With `CC1(C)C(=O)/C(=C/c2ccccc2)C(C)(C)C1(C)C`, the TGI with SF-295 CNS is greater than 100 µM; with ACHN renal, greater than 100 µM; in the assay on SR leukemia, greater than 74.2 µM; in the assay on RXF 393 renal it was greater than 100 µM; in the assay with EKVX NSCLC it was greater than 100 µM; in the assay on SN12C renal it was greater than 100 µM. Also, the TGI with HL-60(TB) leukemia is 46.7 µM; in the assay on HS 578T breast, greater than 100 µM; in the assay on MDA-MB-231 breast it was greater than 100 µM; in the assay on NCI-H460 lung, greater than 100 µM.

Turning to `Cc1cc(NC(=O)NC(=O)c2ccccc2NC(=O)CN(C)C)ccc1Oc1ncc(Br)cn1`, the TGI in the assay on SF-295 CNS is 16.2 µM; in the assay on ACHN renal it was greater than 100 µM; with SR leukemia it was greater than 79.5 µM; with RXF 393 renal it was 22.8 µM; in the assay with EKVX NSCLC, greater than 100 µM; in the assay with SN12C renal, greater than 100 µM. Also, the TGI in the assay on HL-60(TB) leukemia was 12.5 µM; in the assay with HS 578T breast, greater than 23.9 µM; with MDA-MB-231 breast, greater than 78.1 µM; in the assay with NCI-H460 lung, greater than 95 µM.

With `COc1ccc2oc(=O)c(-c3cc4c(c(C)n3)c(=O)oc3ccc(OC)cc34)cc2c1`, the TGI was greater than 100 µM in the assay with SF-295 CNS; 86 µM with ACHN renal; greater than 100 µM in the assay on SR leukemia; greater than 100 µM in the assay on RXF 393 renal; greater than 100 µM with EKVX NSCLC; greater than 100 µM in the assay with SN12C renal. Also, the TGI was greater than 100 µM in the assay on HL-60(TB) leukemia, 83.5 µM in the assay on HS 578T breast, greater than 100 µM with MDA-MB-231 breast and greater than 100 µM in the assay with NCI-H460 lung.

For `COc1cc2c(cc1O)C(Cc1ccc(OCc3ccccc3)c(OCc3ccccc3)c1)N(C(=O)NCCc1ccccc1)CC2` (stereo not given), the TGI in the assay with SF-295 CNS, in the assay with ACHN renal, with SR leukemia, with RXF 393 renal, in the assay on EKVX NSCLC and with SN12C renal was greater than 100 µM each time. The TGI in the assay on HL-60(TB) leukemia, in the assay with HS 578T breast, in the assay with MDA-MB-231 breast and with NCI-H460 lung was greater than 100 µM in each case.

As to `COC(=O)CCC(C)[C@H]1CCC2C3CC[C@@H]4CC5(CC[C@]4(C)C3C[C@H](OC(C)=O)[C@@]21C)OOC1(CCCCC1)OO5` (stereo not given in full), the TGI in the assay on SF-295 CNS is greater than 100 µM; with ACHN renal it was greater than 100 µM; in the assay on SR leukemia, greater than 100 µM; in the assay with RXF 393 renal it was greater than 100 µM; in the assay on EKVX NSCLC, 7.37 µM; with SN12C renal, greater than 100 µM. Further, the TGI in the assay on HL-60(TB) leukemia is 8.89 µM; in the assay on HS 578T breast, greater than 100 µM; in the assay on MDA-MB-231 breast, greater than 100 µM; with NCI-H460 lung, greater than 100 µM.

With `CCNC(=S)N/N=C(/C)c1cccc(/C(C)=N\NC(=S)NCC)n1`, the TGI in the assay with SF-295 CNS was greater than 38.8 µM; in the assay on ACHN renal, greater than 66.9 µM; in the assay with SR leukemia, greater than 15.7 µM; in the assay on RXF 393 renal, 33.5 µM; in the assay with EKVX NSCLC, greater than 52.7 µM; with SN12C renal it was greater than 65.6 µM. For the same molecule, the TGI with HL-60(TB) leukemia is 7.9 µM; in the assay with HS 578T breast it was greater than 96.6 µM; with MDA-MB-231 breast it was greater than 84.2 µM; with NCI-H460 lung, 12.5 µM.

For the molecule `COC1=C(OC)C(=O)C(Cc2c(Cl)nc3sccn23)=C(C)C1=O`, the TGI with SF-295 CNS amounted to 25.4 µM; with ACHN renal, 27.8 µM; in the assay on SR leukemia, 18.5 µM; in the assay on RXF 393 renal, 31.1 µM; with EKVX NSCLC it was 20.4 µM; with SN12C renal, 26.2 µM. Moreover, the TGI was 6.98 µM with HL-60(TB) leukemia, 50.3 µM with HS 578T breast, 8.28 µM with MDA-MB-231 breast and 25.4 µM in the assay with NCI-H460 lung.

For `O=C(O)[C@H]1NC[C@H]2C(Br)=NO[C@@H]12`, the TGI with SF-295 CNS, in the assay with ACHN renal, with SR leukemia, in the assay on RXF 393 renal, with EKVX NSCLC and with SN12C renal was greater than 100 µM throughout. For the same molecule, the TGI with HL-60(TB) leukemia, with HS 578T breast, in the assay with MDA-MB-231 breast and in the assay on NCI-H460 lung was greater than 100 µM in each case.

As to `C[C@H]1CCC/C=C/[C@@H]2C[C@H](OC3OC(CO)C(O)C(O)C3O)C[C@H]2[C@H](O)/C=C/C(=O)O1` (stereo not given in full), the TGI was greater than 100 µM with SF-295 CNS; greater than 100 µM with ACHN renal; greater than 100 µM with SR leukemia; 87.3 µM with RXF 393 renal; greater than 100 µM in the assay with EKVX NSCLC; greater than 100 µM with SN12C renal. Moreover, the TGI in the assay on HL-60(TB) leukemia is greater than 100 µM; in the assay with HS 578T breast it was greater than 100 µM; in the assay on MDA-MB-231 breast it was 42.9 µM; in the assay on NCI-H460 lung, greater than 100 µM.
